Where a name gives a salt, the structure may show the parent alone. Read-outs that look alike come from different tables or passages of the source.
Tests used:
[1] = test system: platelet aggregation; experiment: Inhibition of platelet aggregation ex vivo (rat blood); format: in vivo; conditions: for inhibition at 10 mg/kg: read-out: Inhibition of platelet aggregation ex vivo (rat blood) in %, Gavage (oral) 10 mg/kg
Description: Inhibition of Platelet Aggregation Ex Vivo (Rat Blood)
Male rats of the Sprague-Dawley strain, weighing 250-300 g, are used at a rate of 6 animals per batch. Each test compound is diluted in a solution of glucose-containing water (glucose 5%) containing 5% of cremophore and 3% of glycofurol.
The compounds according to the invention are administered by stomach tube (10 ml/kg at 1 mg/ml) two hours before taking the sample or by infusion (1 ml/kg at 10 mg/ml) two hours before taking the sample.
The platelet-rich plasma (PRP) is obtained by centrifugation of the blood at 300 g for 5 minutes, and the measurements of platelet aggregation are performed as described above.
The results are calculated using the area under the curve of absorbance measured for 6 minutes, and expressed as percentage (%) of inhibition.

[2] = test system: platelet aggregation; experiment: Inhibition of platelet aggregation in vitro (rat blood); format: cell-based;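 for Inhibition of platelet aggregation in vitro (rat blood) in μM: aggregation induced by ADP added as 4 µL of a 250 µM solution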
Method in brief: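 Platelet-rich plasma from male Sprague-Dawley rats (250-300 g), prepared by centrifugation at 300 g for 5 minutes. Aggregation measured at 37° C in an aggregometer. Percentage inhibition derived from area under the absorbance curve over 6 minutes.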

[3] = rat, 10 mg/kg, two hours before taking the sample
[4] = rat platelet-rich plasma, ADP-induced aggregation, area under the curve of absorbance for 6 minutes, read-out: Inhibition of platelet aggregation in vitro (rat blood);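 for Inhibition of platelet aggregation in vitro (rat blood) in μM: aggregation induced by ADP added as 4 µL of a 250 µM solution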
[5] = Rattus norvegicus, Platelet, po, 2 h
[6] = Rattus norvegicus, Platelet, 0.1 h, read-out: Inhibition of platelet aggregation in vitro (rat blood) in μM
[7] = Platelet, 2 h, rat, gavage (oral), 10 mg/kg, two hours before taking the sample
[8] = rat, gavage (oral), 10 mg/kg, two hours before taking the sample
[9] = rat blood, in vitro, read-out: Inhibition of platelet aggregation in vitro (rat blood);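 for Inhibition of platelet aggregation in vitro (rat blood) in μM: aggregation induced by ADP added as 4 µL of a 250 µM solution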
[10] = 0.1 h, rat platelet-rich plasma, ADP-induced aggregation, area under the curve of absorbance for 6 minutes, read-out: Inhibition of platelet aggregation in vitro (rat blood);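 for Inhibition of platelet aggregation in vitro (rat blood) in μM: aggregation induced by ADP added as 4 µL of a 250 µM solution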

| Compound | IC50 [2, 4] [µM] | Inhibition of platelet aggregation ex vivo (rat blood) in %, Gavage (oral) 10 mg/kg [1, 8] [%] | IC50 [2, 9] [µM] | also measured |
| --- | --- | --- | --- | --- |
| CCCC(=O)c1cnn(-c2ccc(NC(=O)c3cn(CC(=O)N4CC(C)N(CCOC)C(C)C4)c4ccc(Cl)cc34)cc2)c1C.Cl (stereo not drawn) |  |  |  | melting point: 187 °C |
| CCCC(=O)c1cnn(-c2ccc(NC(=O)c3cn(CC(=O)O)c4ccc(C)cc34)cc2)c1C [Compound 11] | 9.6 |  |  | Inhibition of platelet aggregation ex vivo (rat blood) in %, Infusion (Intravenous) 10 mg/kg [1, 3]: 40.7% |
| CCCC(=O)c1cnn(-c2ccc(NC(=O)c3cn(CC(=O)N4CCN(C)CC4)c4ccc(Cl)cc34)nn2)c1C [Compound 28, N-[6-(4-Butyryl-5-methyl-1H-pyrazol-1-yl)pyridazin-3-yl]-5-chloro-1-[2-(4-methylpiperazin-1-yl)-2-oxoethyl]-1H-indole-3-carboxamide hydrochloride] |  |  |  | inhibition at 3 mg/kg ([1]; Rattus norvegicus, Platelet, iv, 2 h, read-out: Inhibition of platelet aggregation ex vivo (rat blood) in %, Infusion (Intravenous) 3 mg/kg): 79%; inhibition at 10 mg/kg [1, 5]: 73.5%; IC50 [2, 6]: 0.06 µM |
| CCCC(=O)c1cnn(-c2ccc(NC(=O)c3cn(CC(=O)N4CCN(CCOC)CC4)c4ccc(Cl)cc34)nn2)c1C [Compound 29, N-[6-(4-Butyryl-5-methyl-1H-pyrazol-1-yl)pyridazin-3-yl]-5-chloro-1-{2-[4-(2-methoxyethyl)piperazin-1-yl]-2-oxoethyl}-1H-indole-3-carboxamide hydrochloride] |  |  |  | inhibition at 1 mg/kg ([1]; Rattus norvegicus, Platelet, iv, 2 h, read-out: Inhibition of platelet aggregation ex vivo (rat blood) in %, Infusion (Intravenous) 1 mg/kg): 76%; inhibition at 10 mg/kg [1, 5]: 86.3%; IC50 [2, 6]: 0.08 µM |
| CCCC(=O)c1cnn(-c2ccc(NC(=O)c3cn(CC(=O)N4CCN(CCOC)CC4)c4ccc(Cl)cc34)cc2)c1C [Compound 105, N-[4-(4-Butyryl-5-methyl-1H-pyrazol-1-yl)phenyl]-5-chloro-1-{2-[4-(2-methoxyethyl)piperazin-1-yl]-2-oxoethyl}-1H-indole-3-carboxamide hydrochloride] |  |  |  | inhibition at 10 mg/kg [1, 7]: 67.9%; IC50 ([2]; Platelet, rat blood, in vitro, read-out: Inhibition of platelet aggregation in vitro (rat blood)): 0.32 µM |
| CCCC(=O)c1cnn(-c2ccc(NC(=O)c3cn(CC(=O)N4CCN(C)CC4)c4cc(C)c(C)cc34)cc2)c1C.Cl [Compound 107] |  | 36.8 | 0.3 | Inhibition of platelet aggregation ex vivo (rat blood) in %, Infusion (Intravenous) 10 mg/kg [1, 3]: 57.8% |
| CCCC(=O)c1cnn(-c2ccc(NC(=O)c3cn(CC(=O)N4CCN(C)CC4)c4ccc(Cl)cc34)cc2)c1C.Cl [Compound 115] |  | 50.6 | 0.32 | Inhibition of platelet aggregation ex vivo (rat blood) in %, Infusion (Intravenous) 10 mg/kg [1, 3]: 78.2% |
| CCCC(=O)c1cnn(-c2ccc(NC(=O)c3cn(CC(=O)N4CCN(CCOC)CC4)c4ccc(C)cc34)cc2)c1C.Cl [Compound 119] |  | 61.1 | 0.18 |  |
| CCCC(=O)c1cnn(-c2ccc(NC(=O)c3cn(CC(=O)N4CCN(CCF)CC4)c4ccc(C)cc34)cc2)c1C.Cl [Compound 133] |  | 74.2 | 0.32 |  |
| CCCC(=O)c1cnn(-c2ccc(NC(=O)c3cn(CC(=O)N4CCN(CCF)CC4)c4ccc(Cl)cc34)cc2)c1C.Cl [Compound 142] |  | 76.5 | 0.13 |  |
| CCCC(=O)c1cnn(-c2ccc(NC(=O)c3cn(CC(=O)N4CCN(CCOCCOC)CC4)c4ccc(Cl)cc34)cc2)c1C.Cl [Compound 145] |  | 53.7 | 0.25 |  |
| CCCC(=O)c1cnn(-c2ccc(NC(=O)c3cn(CC(=O)N4CCN(Cc5ccc(F)cc5)CC4)c4ccc(C)cc34)cc2)c1C.Cl [Compound 147] |  | 74.9 | 0.19 |  |
| CCCC(=O)c1cnn(-c2ccc(NC(=O)c3cn(CC(=O)N4CCN(Cc5cc(C)on5)CC4)c4ccc(Cl)cc34)cc2)c1C.Cl [Compound 166] |  | 72.0 |  |  |
| CCCC(=O)c1cnn(-c2ccc(NC(=O)c3cn(CC(=O)N4CCCC4C(F)(F)F)c4ccc(Cl)cc34)cc2)c1C (stereo not drawn) [Compound 170] |  | 71.5 | 0.12 |  |
| CCCC(=O)c1cnn(-c2ccc(NC(=O)c3cn(CC(=O)N4CCN(C)CC4C)c4ccc(Cl)cc34)cc2)c1C.Cl (stereo not drawn) [Compound 177] |  | 63.9 | 0.37 |  |
| CCCC(=O)c1cnn(-c2ccc(NC(=O)c3cn(CC(=O)N4CCN(C(C)COC)CC4)c4ccc(Cl)cc34)cc2)c1C.Cl (stereo not drawn) [Compound 179] |  | 76.1 | 0.17 |  |
| CCCC(=O)c1cnn(-c2ccc(NC(=O)c3cn(CC(=O)N4CCN(C(C)(C)COC)CC4)c4ccc(Cl)cc34)cc2)c1C.Cl [Compound 180] |  | 65.1 | 0.24 |  |
| CCCC(=O)c1cnn(-c2ccc(NC(=O)c3cn(CC(=O)N4CCN(C)CC4)c4ccc(Cl)cc34)c(C#N)c2)c1C [Compound 219] |  | 65.1 | 0.54 |  |
| CCCC(=O)c1cnn(-c2ccc(NC(=O)c3cn(CC(=O)N4CCNC(CO)C4)c4ccc(C)cc34)cc2)c1C (stereo not drawn) [Compound 249] | 0.24 |  |  |  |

| Compound | IC50 [2, 4] [µM] | Inhibition of platelet aggregation ex vivo (rat blood) in %, Gavage (oral) 10 mg/kg [1, 8] [%] | IC50 [2, 9] [µM] | also measured |
| --- | --- | --- | --- | --- |
| CCCC(=O)c1cnn(-c2ccc(NC(=O)c3cn(CC(=O)N4CCC(NC)C4)c4ccc(C)cc34)cc2)c1C (stereo not drawn) [Compound 250] | 0.61 |  |  |  |
| CCCC(=O)c1cnn(-c2ccc(NC(=O)c3cn(CC(=O)N4CCCC(NC)C4)c4ccc(C)cc34)cc2)c1C (stereo not drawn) [Compound 251] | 0.54 |  |  |  |
| CCCC(=O)c1cnn(-c2ccc(NC(=O)c3cn(CC(=O)N4CCC(N)CC4)c4ccc(C)cc34)cc2)c1C [Compound 252] | 0.4 |  |  |  |
| CCCC(=O)c1cnn(-c2ccc(NC(=O)c3cn(CC(=O)N4CCNCC4CO)c4ccc(C)cc34)cc2)c1C (stereo not drawn) [Compound 254] | 0.19 |  |  |  |
| CCCC(=O)c1cnn(-c2ccc(NC(=O)c3cn(CC(=O)N4CC5CNCC5C4)c4ccc(C)cc34)cc2)c1C (stereo not drawn) [Compound 255] | 0.18 |  |  |  |
| CCCC(=O)c1cnn(-c2ccc(NC(=O)c3cn(CC(=O)N4CCNCC4)c4ccc(Cl)cc34)cc2)c1C [Compound 256] | 0.23 |  |  |  |
| CCCC(=O)c1cnn(-c2ccc(NC(=O)c3cn(CC(=O)N4CCNC(C)C4)c4ccc(Cl)cc34)cc2)c1C (stereo not drawn) [Compound 257] | 0.46 |  |  |  |
| CCCC(=O)c1cnn(-c2ccc(NC(=O)c3cn(CC(=O)N4CCNCC4C)c4ccc(Cl)cc34)cc2)c1C (stereo not drawn) [Compound 258] | 0.3 |  |  |  |
| CCCC(=O)c1cnn(-c2ccc(NC(=O)c3cn(CC(=O)N4CC(C)N(C)C(C)C4)c4ccc(C)cc34)cc2)c1C (stereo not drawn) [Compound 263] | 0.42 |  |  |  |
| CCCC(=O)c1cnn(-c2ccc(NC(=O)c3cn(CC(=O)N4CC5CC4CN5C)c4ccc(C)cc34)cc2)c1C (stereo not drawn) [Compound 264] | 0.56 |  |  |  |
| CCCC(=O)c1cnn(-c2ccc(NC(=O)c3cn(CC(=O)N4CC5CCN(C)C5C4)c4ccc(C)cc34)cc2)c1C (stereo not drawn) [Compound 265] | 0.79 |  |  |  |
| CCCC(=O)c1cnn(-c2ccc(NC(=O)c3cn(CC(=O)N4CC5CN(C)CC5C4)c4ccc(C)cc34)cc2)c1C (stereo not drawn) [Compound 266] | 0.4 |  |  |  |
| CCCC(=O)c1cnn(-c2ccc(NC(=O)c3cn(CC(=O)NC4CCCN(C)C4)c4ccc(C)cc34)cc2)c1C (stereo not drawn) [Compound 267] |  |  |  | IC50 [2, 10]: 0.45 µM |
| CCCC(=O)c1cnn(-c2ccc(NC(=O)c3cn(CC(=O)N4CCN(C)C(CO)C4)c4ccc(C)cc34)cc2)c1C (stereo not drawn) [Compound 268] | 0.24 |  |  |  |
| CCCC(=O)c1cnn(-c2ccc(NC(=O)c3cn(CC(=O)N4CCN(C)C(C)C4)c4ccc(C)cc34)cc2)c1C (stereo not drawn) [Compound 269] | 0.35 |  |  |  |
| CCCC(=O)c1cnn(-c2ccc(NC(=O)c3cn(CC(=O)N4CCN(C)C(C(=O)NC)C4)c4ccc(Cl)cc34)cc2)c1C (stereo not drawn) [Compound 272, N-[4-(4-butyryl-5-methyl-1H-pyrazol-1-yl)phenyl]-5-chloro-1-{2-[4-methyl-3-(methylcarbamoyl)piperazin-1-yl]-2-oxoethyl}-1H-indole-3-carboxamide] |  |  |  | melting point: 274 °C; IC50 [2, 10]: 0.21 µM |
| CCCC(=O)c1cnn(-c2ccc(NC(=O)c3cn(CC(=O)N4CCN5CCNC(=O)C5C4)c4ccc(Cl)cc34)cc2)c1C.Cl (stereo not drawn) [Compound 273, N-[4-(4-Butyryl-5-methyl-1H-pyrazol-1-yl)phenyl]-5-chloro-1-[2-oxo-2-(9-oxooctahydro-2H-pyrazino[1,2-a]pyrazin-2-yl)ethyl]-1H-indole-3-carboxamide hydrochloride] |  |  |  | melting point: 230 °C; IC50 [2, 10]: 0.29 µM |
| CCCC(=O)c1cnn(-c2ccc(NC(=O)c3cn(CC(=O)N4CCN5CCN(C)C(=O)C5C4)c4ccc(Cl)cc34)cc2)c1C (stereo not drawn) [Compound 274, N-[4-(4-Butyryl-5-methyl-1H-pyrazol-1-yl)phenyl]-5-chloro-1-[2-(8-methyl-9-oxooctahydro-2H-pyrazino[1,2-a]pyrazin-2-yl)-2-oxoethyl]-1H-indole-3-carboxamide hydrochloride] |  |  |  | inhibition at 10 mg/kg [1, 7]: 82.7%; IC50 [2, 10]: 0.1 µM |

Reference: patent US8623862B2, “Derivatives of N-[(1H-pyrazol-1-yl)aryl]-1H-indole or 1H-indazole-3-carboxamide, preparation thereof and applications thereof in therapeutics” (Sanofi, priority 2011, dated 2014)
